# Like-named read-outs stand apart in the source and are kept apart here.
# Experiments:
# [1] = In vivo pharmacokinetics, plasma exposure after single oral dose; details: CD1 mice, single oral gavage 10 mg/kg
# Experimental: Pharmacokinetic (PK) studies were performed in CD1 mice to establish plasma exposure following administration of single oral doses of galiellalactone (GL) and example 1. Sample analysis was by LC-MS/MS. Dose solutions were prepared at a drug concentration of 0.5 mg/mL in 5% DMSO in 50 mM citrate buffer (citric acid/sodium citrate pH 4.0) and administered as a 20 mL/kg oral gavage (10 mg/kg).
# [2] = test system: STAT3 signaling; experiment: STAT3 Luciferase reporter gene assay; type: cell-based; details: Homo sapiens; STAT3 reporter/HEK293 cell line, 1 h pretreatment, IL-6 induced for 16 h, luciferase activity; read-out: IC50
# Experimental: The ability to inhibit STAT3 signaling of the example compounds in comparison to galiellalactone was evaluated using a STAT3 Luciferase reporter gene assay.
# Compounds were tested for dose response activity to determine IC50 at eight different doses (0.03, 0.1, 0.3, 1, 3, 10, 30 and 100 μM) in triplicate on the STAT3 reporter system.
# Briefly, the STAT3 reporter/HEK293 cell line was plated in 96-well white plates for 16 h. Cells were pretreated with compounds for 1 h. Cells were then treated with IL-6 to induce STAT3 activation for 16 h. Luciferase activity was measured and analyzed.
# [3] = test system: IL-6 stimulated LNCaP prostate cancer cells; experiment: Inhibition of IL-6 stimulated LNCaP cell proliferation, MTT assay; type: cell-based; details: Homo sapiens, IL-6 stimulated LNCaP cells, read-out: GIC50
# [4] = Chemical stability in phosphate buffer solution (PBS); type: physicochemical; details: 37° C., 1 μM test concentration
# Experimental: The chemical stability of example 20 and 28 in solution was determined in phosphate buffer solution (PBS) at 37° C. as outlined below.
# A 4 μl volume of 100 μM stock solution of the study compound in 50% DMSO was added to 396 μl of PBS, to obtain 1 μM test concentration. The study compounds were incubated in PBS at 37° C. with 600 rpm shaking. The incubations were quenched (30, 60, and 120 min) using a two-fold volume of cold acetonitrile and analyzed. The samples (0, 30, 60, and 120 min) were analyzed using a Waters Acquity UPLC with Thermo Q-Exactive Focus Orbitrap and a Waters HSS T3 (2.1×50 mm, 1.7 μm particle size) column.
# [5] = test system: IL-6/STAT3 signaling; details: cited from earlier work
Structure (SMILES),AUC(0-inf) ([1]; mouse),AUC(0-t) ([1]; mouse),"half-life ([1]; mouse, read-out: Apparent half-life (converted))","Cmax ([1]; mouse, read-out: Cmax)","Tmax ([1]; mouse, read-out: Tmax)",IC50 [2],IC50 [3],half-life at 1 μM [4],inhibition of IL-6/STAT3 signaling [5],Cmax [1],Tmax [1]
"Cc1ccc(S(=O)(=O)N[C@@]2(C)C=C3C(=O)O[C@@H]4CC[C@H](C2)[C@]34O)cc1 [Example 1, N-[(4R,7R,9R,11S)-11-Hydroxy-9-methyl-2-oxo-3-oxatricyclo[5.3.1.0^4,11]undec-1(10)-en-9-yl]-4-methylbenzene-1-sulfonamide]",157 ng·h/mL,141 ng·h/mL,2 h,129 ng/mL,0.25 h,1.1 µM,1 µM,–,–,–,–
"C[C@]1(NS(=O)(=O)c2ccc(C(F)(F)F)cn2)C=C2C(=O)O[C@@H]3CCC(C1)[C@]23O (stereo partly drawn) [Example 20, N-[(4R,7R,9R,11S)-11-hydroxy-9-methyl-2-oxo-3-oxatricyclo[5.3.1.0^4,^11]undec-1(10)-en-9-yl]-5-(trifluoromethyl)pyridine-2-sulfonamide]",–,–,–,–,–,1.25 µM,–,5.82 h,–,–,–
"C[C@]1(NS(=O)(=O)c2ccc(C(F)(F)F)cn2)C=C2C(=O)O[C@]3(C)CC[C@H](C1)[C@]23O [Example 28, N-[(4R,7R,9R,11S)-11-hydroxy-4,9-dimethyl-2-oxo-3-oxatricyclo[5.3.1.0^4,11]undec-1 (10)-en-9-yl]-5-(trifluoromethyl)pyridine-2-sulfonamide]",–,–,–,–,–,0.92 µM,–,> 13.2 h,–,–,–
"C[C@@H]1C=C2C(=O)O[C@@H]3CC[C@H](C1)[C@]23O [Galiellalactone, (−)-Galiellalactone]",–,–,–,–,–,7.5 µM,2.8 µM,–,submicromolar,52 ng/mL,0.5 h
